Among the data in patent publication US11566007B2, “Ras inhibitors” (Revolution Medicines, Inc., priority 2019, dated 2023) are IC50 values, retold here.

One test deals with KRAS G12D (Homo sapiens (Human), UniProt P01116+P62937, G12D). The experiment in a line: Ras-Raf (BRAF RBD) disruption / FRET / MOA assay, KRAS G12D. In kind it is biochemical. The settings on record: Ras-Raf disruption/FRET/MOA assay; class symbols; read-out: KRAS G12D FRET data IC50. In a few lines:
(§1)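 Ras:RAF disruption was scored as a fall in TR-FRET ratio relative to DMSO. Compound ranged in 3-fold steps over 10 points from 30 μM final; incubation ran 3 h at 25° C, detection antibodies a further 1.5 h. Reported as IC50.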

The next test concerns the target KRAS G12S (Homo sapiens (Human), UniProt P01116+P62937, G12S). The experiment in a line: Ras-Raf (BRAF RBD) disruption / FRET / MOA assay, KRAS G12S. In kind it is biochemical. The following applies: Ras-Raf disruption/FRET/MOA assay; class symbols; read-out: KRAS G12S FRET data IC50. The gist of the method:
as §1

Sequence of KRAS G12S (P01116-2 other isoform, or with tags, fused parts or gaps G12S): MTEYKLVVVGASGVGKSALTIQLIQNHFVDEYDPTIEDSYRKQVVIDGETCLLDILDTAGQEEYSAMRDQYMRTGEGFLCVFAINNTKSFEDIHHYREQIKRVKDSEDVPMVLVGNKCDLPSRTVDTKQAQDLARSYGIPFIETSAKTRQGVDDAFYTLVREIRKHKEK
Sequence of KRAS G12S (P62937 whole entry): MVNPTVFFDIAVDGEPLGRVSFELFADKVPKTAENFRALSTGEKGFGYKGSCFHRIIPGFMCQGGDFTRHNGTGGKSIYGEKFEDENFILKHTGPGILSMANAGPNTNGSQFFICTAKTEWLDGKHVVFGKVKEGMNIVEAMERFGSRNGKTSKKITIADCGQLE
Sequence of KRAS G12D (P01116-2 other isoform, or with tags, fused parts or gaps G12D): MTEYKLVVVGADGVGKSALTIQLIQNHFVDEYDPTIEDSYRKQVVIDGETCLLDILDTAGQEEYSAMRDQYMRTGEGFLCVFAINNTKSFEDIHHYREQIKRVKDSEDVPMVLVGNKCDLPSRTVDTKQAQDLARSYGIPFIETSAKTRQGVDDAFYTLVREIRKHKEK
Sequence of KRAS G12D (P62937 whole entry): as the sequence (P62937 whole entry) above

With `C=CC(=O)N1CCC(F)(C(=O)N(C)[C@H](C(=O)N[C@H]2C[C@H]3CN(CCO3)c3ccc4c(c3)c(c(-c3cccnc3[C@H](C)OC)n4CC)CC(C)(C)COC(=O)[C@@H]3CCCN(N3)C2=O)C(C)C)CC1` (atropisomer, axis not shown) [Example A722, 1-acryloyl-N-((2S)-1-(((6^3S,4S)-1^1-ethyl-1^2-(2-((S)-1-methoxyethyl)pyridin-3-yl)-10,10-dimethyl-5,7-dioxo-6^1,6^2,6^3,6^4,6^5,6^6-hexahydro-1^1H-8-oxa-2(4,2)-morpholina-1(5,3)-indola-6(1,3)-pyridazinacycloundecaphane-4-yl)amino)-3-methyl-1-oxobutan-2-yl)-4-fluoro-N-methylpiperidine-4-carboxamide], the IC50 on KRAS G12D and on KRAS G12S was 1 to 10 µM each time.
Take `C=CC(=O)N1CC[C@@]2(C1)OCN([C@H](C(=O)N[C@H]1Cc3cccc(c3)-c3ccc4c(c3)c(c(-c3cccnc3[C@H](C)OC)n4CC)CC(C)(C)COC(=O)[C@@H]3CCCN(N3)C1=O)C(C)C)C2=O` (atropisomer, axis not shown) [Example A358]: the IC50 at KRAS G12D and on KRAS G12S was 1 to 10 µM in each case.
As to `CCn1c(-c2cccnc2[C@H](C)OC)c2c3cc(ccc31)C1CCCN(C1)C[C@H](NC(=O)[C@@H](COC1CN(C(=O)C#CC(C)(C)N(C)C)C1)C(C)C)C(=O)N1CCC[C@H](N1)C(=O)OCC(C)(C)C2` [Example A646, (2R)-2-(((1-(4-(dimethylamino)-4-methylpent-2-ynoyl)azetidin-3-yl)oxy)methyl)-N-((6^3S,4S)-1^1-ethyl-1^2-(2-((S)-1-methoxyethyl)pyridin-3-yl)-10,10-dimethyl-5,7-dioxo-6^1,6^2,6^3,6^4,6^5,6^6-hexahydro-1^1H-8-oxa-1(5,3)-indola-6(1,3)-pyridazina-2(3,1)-piperidinacycloundecaphane-4-yl)-3-methylbutanamide], the IC50 on KRAS G12D and at KRAS G12S was above 10 µM in each case.
Turning to `C=CC(=O)N1CC[C@H](C(=O)N(C)[C@H](C(=O)N[C@H]2Cc3cccc(c3)-c3ccc4c(c3)c(c(-c3cccnc3[C@H](C)OC)n4CC)CC(C)(C)COC(=O)[C@@H]3CCCN(N3)C2=O)C(C)C(F)(F)F)C1` (some centres unmarked) [Example A641], the IC50 was above 10 µM at KRAS G12D and 1 to 10 µM at KRAS G12S.
Taken in the same sequence, the figures for `C=CC(=O)N1CC[C@H](C(=O)N(C)[C@H](C(=O)N[C@H]2Cc3cc(O)cc(c3)-c3ccc4c(c3)c(c(-c3cncs3)n4CC)CC(C)(C)COC(=O)[C@@H]3CCCN(N3)C2=O)C(C)C)C1` [Example A143] were above 10 µM and 1 to 10 µM.
The matching figures for `C=CC(=O)N1CCN(C(=O)N(C)[C@H](C(=O)N[C@H]2Cc3nc(cs3)-c3ccc4c(c3)c(c(-c3cccnc3[C@H](C)OC)n4CC)CC(C)(C)COC(=O)[C@@H]3CCCN(N3)C2=O)C(C)C)[C@H]2C[C@H]21` (atropisomer, axis not shown) [Example A737]: 0.1 to 1 µM and 0.1 to 1 µM.
The matching figures for `C=CC(=O)N1CC[C@H](C(=O)N(C)[C@H](C(=O)N[C@H]2Cc3cccc(c3)-c3ccc4c(c3)c(c(-c3cc(C5CN(C)C5)cnc3[C@H](C)OC)n4CC)CC(C)(C)COC(=O)[C@@H]3CCCN(N3)C2=O)C(C)C)C1` (atropisomer, axis not shown) [Example A392]: above 10 µM and 1 to 10 µM.
Take `CO[C@@H](C)c1ncccc1-c1c2c3cc(ccc3n1CC(F)(F)F)-c1cc(cc(C(F)F)c1)C[C@H](NC(=O)[C@@H](COC1CN(C(=O)C#CC(C)(C)N(C)C)C1)C(C)C)C(=O)N1CCC[C@H](N1)C(=O)OCC(C)(C)C2` (atropisomer, axis not shown) [Example A374]: the IC50 at KRAS G12D and on KRAS G12S was above 10 µM throughout.
As to `C=CC(=O)N(C)C[C@@H]1CCN1C(=O)N(C)[C@H](C(=O)N[C@H]1Cc2nc(cs2)-c2ccc3c(c2)c(c(-c2cccnc2[C@H](C)OC)n3CC)CC(C)(C)COC(=O)[C@@H]2CCCN(N2)C1=O)C(C)C` (atropisomer, axis not shown) [Example A390], the IC50 on KRAS G12D and at KRAS G12S was 1 to 10 µM each time.
Regarding `CCn1c(-c2cccnc2[C@H](C)OC)c2c3cc(ccc31)N1CCO[C@@H](C[C@H](NC(=O)[C@H](C(C)C)N(C)C(=O)C3(F)CCN(C(=O)/C=C/CN(C)C)CC3)C(=O)N3CCC[C@H](N3)C(=O)OCC(C)(C)C2)C1` (atropisomer, axis not shown) [Example A645], the IC50 on KRAS G12D and at KRAS G12S was 1 to 10 µM in each case.
For `C=CC(=O)N(C)CCN1CCN(C(=O)N(C)[C@H](C(=O)N[C@H]2Cc3cccc(c3)-c3ccc4c(c3)c(c(-c3cccnc3[C@H](C)OC)n4CC)CC(C)(C)COC(=O)[C@@H]3CCCN(N3)C2=O)C(C)C)CC1` (atropisomer, axis not shown) [Example A539], the concentration for half-maximal inhibition (IC50) was 1 to 10 µM at KRAS G12D and 0.1 to 1 µM at KRAS G12S.
The matching figures for `C=CC(=O)N1CCOC2(CCN(C(=O)N(C)[C@H](C(=O)N[C@H]3Cc4cc(C(F)F)cc(n4)-c4ccc5c(c4)c(c(-c4cccnc4[C@H](C)OC)n5CC(F)(F)F)CC(C)(C)COC(=O)[C@@H]4CCCN(N4)C3=O)C(C)C)CC2)C1` (atropisomer, axis not shown) [Example A541]: 1 to 10 µM and 0.1 to 1 µM.
Taken in the same sequence, the figures for `C=CC(=O)N1CC[C@H](C(=O)N(C)[C@H](C(=O)N[C@H]2Cc3cc(O)cc(c3)-c3ccc4c(c3)c(c(-c3cnc(N(C)C)s3)n4CC)CC(C)(C)COC(=O)[C@@H]3CCCN(N3)C2=O)C(C)C)C1` [Example A302] were above 10 µM and 1 to 10 µM.
Taken in the same sequence, the figures for `CCn1c(-c2cccnc2[C@H](C)OC)c2c3cc(ccc31)-c1cccc(c1)CC(NC(=O)[C@H](C(C)C)N1CC[C@]3(CCN(C(=O)C#C[C@@H]4COCCN4C4COC4)C3)C1=O)C(=O)N1CCC[C@H](N1)C(=O)OCC(C)(C)C2` (some centres unmarked) [Example A565] were above 10 µM and 1 to 10 µM.
On to `C=CC(=O)N1CC[C@]2(CCN2C(=O)N(C)[C@H](C(=O)N[C@H]2Cc3nc(cs3)-c3ccc4c(c3)c(c(-c3cccnc3[C@H](C)OC)n4CC)CC(C)(C)COC(=O)[C@@H]3CCCN(N3)C2=O)C(C)C)C1` (atropisomer, axis not shown) [Example A662], for which the IC50 at KRAS G12D and at KRAS G12S was 0.1 to 1 µM in each case.
`C=CC(=O)N1CC[C@]2(C1)CN(C(=O)N(C)[C@H](C(=O)N[C@H]1Cc3nc(cs3)-c3ccc4c(c3)c(c(-c3cccnc3[C@H](C)OC)n4CC)CC(C)(C)COC(=O)[C@@H]3CCCN(N3)C1=O)C(C)C)CCO2` (atropisomer, axis not shown) [Example A354]: the IC50 at KRAS G12D and on KRAS G12S was 0.1 to 1 µM in each case.
On to `C=CC(=O)N1CC[C@H](C(=O)N(C)[C@H](C(=O)N[C@H]2Cc3cc(O)cc(c3)-c3ccc4c(c3)c(c(-c3cccc5c3COC5)n4CC)CC(C)(C)COC(=O)[C@@H]3CCCN(N3)C2=O)C(C)C)C1` [Example A227], for which the figures for the IC50 at KRAS G12D and on KRAS G12S were above 10 µM and 1 to 10 µM, respectively.
The matching figures for `C=CC(=O)N1CC[C@]2(C1)OCN([C@H](C(=O)N[C@H]1Cc3cc(cc(C(F)F)c3)-c3ccc4c(c3)c(c(-c3cccnc3[C@H](C)OC)n4CC)CC(C)(C)COC(=O)[C@@H]3CCCN(N3)C1=O)C(C)C)C2=O` (atropisomer, axis not shown) [Example A557]: 1 to 10 µM and 0.1 to 1 µM.
Taken in the same sequence, the figures for `C=CC(=O)N1CCOC2(CCN(C(=O)N(C)[C@H](C(=O)N[C@H]3C[C@H]4CN(CCO4)c4ccc5c(c4)c(c(-c4cccnc4[C@H](C)OC)n5CC)CC(C)(C)COC(=O)[C@@H]4CCCN(N4)C3=O)C(C)C)CC2)C1` [Example A564] were 1 to 10 µM and 0.1 to 1 µM.
Taken in the same sequence, the figures for `C=CC(=O)N1CC[C@H](C(=O)N(C)[C@H](C(=O)N[C@H]2Cc3cccc(n3)-c3ccc4c(c3)c(c(-c3cccnc3[C@H](C)OC)n4CC)CC(C)(C)COC(=O)[C@@H]3CCCN(N3)C2=O)C(C)C)C1` (atropisomer, axis not shown) [Example A442] were above 10 µM and 1 to 10 µM.
Consider `CO[C@@H](C)c1ncccc1-c1c2c3cc(ccc3n1CC(F)(F)F)-c1csc(n1)C[C@H](NC(=O)CCOC1CN(C(=O)C#CC(C)(C)N3CCC3)C1)C(=O)N1CCC[C@H](N1)C(=O)OCC(C)(C)C2` (atropisomer, axis not shown) [Example A363], for which the concentration for half-maximal inhibition (IC50) at KRAS G12D was above 10 µM; at KRAS G12S, 1 to 10 µM.
The matching figures for `C=CC(=O)N1CC[C@@H]2[C@H](C1)CN2C(=O)N(C)[C@H](C(=O)N[C@H]1Cc2nc(cs2)-c2ccc3c(c2)c(c(-c2cccnc2[C@H](C)OC)n3CC)CC(C)(C)COC(=O)[C@@H]2CCCN(N2)C1=O)C(C)C` (atropisomer, axis not shown) [Example A688]: 1 to 10 µM and 1 to 10 µM.
The matching figures for `C=CC(=O)N1CC[C@H](C(=O)N(C)[C@H](C(=O)N[C@H]2Cc3cc(ccn3)-c3ccc4c(c3)c(c(-c3cccnc3COC)n4CC)CC(C)(C)COC(=O)[C@@H]3CCCN(N3)C2=O)C(C)C)C1` [Example A136]: above 10 µM and above 10 µM.
The matching figures for `CCn1c(-c2cccnc2[C@H](C)OC)c2c3cc(ccc31)-c1csc(n1)C[C@H](NC(=O)[C@H](C(C)C)N(C)C(=O)N1CCC13CN(C(=O)/C=C/CN(C)C)C3)C(=O)N1CCC[C@H](N1)C(=O)OCC(C)(C)C2` (atropisomer, axis not shown) [Example A598]: 0.1 to 1 µM and 0.01 to 0.1 µM.
On to `C=CC(=O)N1CC[C@H](C(=O)N(C)[C@H](C(=O)N[C@H]2Cc3cc(O)cc(c3)-c3ccc4c(c3)c(c(-c3ncn(C)c3[C@H](C)OC)n4CC)CC(C)(C)COC(=O)[C@@H]3CCCN(N3)C2=O)C(C)C)C1` [Example A301], for which the IC50 on KRAS G12D was above 10 µM; at KRAS G12S, 1 to 10 µM.
